Measurements reported in patent US7638145B2, “Cultivated agarwood” (Regents of the University of Minnesota, priority 2001, dated 2009).

Experiments:
Type in all cases: in vivo
[1] = system: Aquilaria trees; experiment: Wound types and treatments on plantation trees, Phu Quoc Island, image analyzer area (Example 8); conditions: for effect on area of discoloration and agarwood resin (in words): Example 8 conclusion; for Area of discoloration/resin: after 15 months, longitudinal plane, mean of 8 wounds, approx 0.3 g of agent mixed with sterile Aquilaria sawdust, drill wound plus 5x5 cm bark removed
Text: Fourteen plantation grown trees on Phu Quoc Island were used to test different treatments. Each tree received 8 wounds that were spiraled up the main trunk of the tree separated by approximately 20 cm. A range of different types of wounds and treatments as well as controls were made on each tree. […] Trees were harvested after 15 months and taken to the laboratory for analyses.
Treatments Included: • 1. A surface wound approximately 5×5 cm was made by cutting the bark and removing the bark tissue to expose the xylem. No drill hole was made. • 3. A ⅝ inch drill wound was made approximately 5 cm into the xylem and a 5×5 cm section of the bark removed around the drill hole and approximately 0.3 g sterile Aquilaria sawdust added to the drill wound. • 4. Same as #3 but with approximately 0.3 g of a 1:1 ratio of ferrous chloride and sterile Aquilaria sawdust added to the drill wound. • 5. Same as #3 with approximately 0.3 g of a 1:2 ratio of NaCl and sterile Aquilaria sawdust added to the drill wound. • 6. Same as #3 but with approximately 0.3 g of a 1:4 ratio of Difco yeast extract and sterile Aquilaria sawdust. • 7. Same as #3 but with approximately 0.3 g of a 1:1 ratio of sodium bisulfite and sterile Aquilaria sawdust. • 8. Same as #3 but with approximately 0.3 g of a 1:2:4 ratio of Difco nutrient broth: Difco malt extract: sterile Aquilaria sawdust.
After 15 months, 8 trees were harvested and brought to the laboratory for analyses. The area of discoloration and resin formation was determined by splitting the tree through the wounded region and area affected measured using an image analyzer. Area (cm^2) was determined for all wounds in the longitudinal plane. Each value is a mean of 8 wounds.

[2] = system: Aquilaria trees; experiment: Scribed drill wounds with Basidiomycota cultures or chemicals in sawdust, Kon Tum and Nui Cam (Example 9); conditions: for effect on area of discoloration and agarwood resin (in words): Example 9 conclusion, sodium bisulfite 1:4, salicylic acid 1:2, ferrous chloride 1:4 in sawdust; for Area of discoloration: after 15 months, mean of two trees, chemicals approx 0.5 g in sterile Aquilaria sawdust
Text: Young trees growing at two sites, in home gardens and on agricultural land (Kon Tum, Vietnam and Nui Cam, Vietnam), received 8 wounds per tree. Drill wounds ⅝ inch diameter were drilled approximately 5 cm into the main trunk of each tree in a spiral fashion separated by approximately 20 cm. All drill wounds were scribed to remove a 5×5 cm area of bark around the wound. Fungal treatments consisted of three different types of Basidiomycota obtained from Aquilaria trees in Vietnam. These isolates were not identified to genus but culture morphology indicated they were different genera. Cultures were grown on sterile rice supplemented with malt extract. Cultures were grown for three weeks before inoculation.
Treatments Included: • 1. Control wound receiving sterile rice • 2. Fungal culture 97-14-5 • 3. Fungal culture 97-13-7 • 4. Fungal culture 97-11-25 • 5. Control wound receiving 5 g sterile Aquilaria sawdust • 6. Approximately 0.5 g of a 1:4 ratio of sodium bisulfite and sterile Aquilaria sawdust • 7. Approximately 0.5 g of a 1:2 ratio of salicylic acid in sterile Aquilaria sawdust • 8. Approximately 0.5 g of a 1:4 ratio of ferrous chloride in sterile Aquilaria sawdust
After 15 months two trees were harvested from each location and brought to the laboratory for analyses. The mean area for each type of wound was calculated.

[3] = system: Aquilaria trees; experiment: Drill wounds treated with different compounds to stimulate agarwood production (Example 5); parameters: Area of discoloration: unit not given here; conditions: for effect on area of discoloration (in words): Example 5, at the concentrations tested; for Area of discoloration: approx 0.1-0.2 g per drill wound; for microscopic observations of cells around treated wounds: Example 5; for agarwood induction versus control wounds (in words): Example 5 conclusion
Experimental: To test if different types of compounds could stimulate agarwood production, ⅝ inch drill wounds were made approximately 5 cm into the main trunk of young plantation trees and different materials used to treat the drill wounds. Chemicals used were from Sigma Chemicals Inc. St. Louis, Mo. or Mallinckrodt Inc. Paris, Ky. One drill wound per tree received no treatment and others received one of the following treatments:
Chitosan—purified chitin approximately 0.2 g of chitin was added per wound
Formic acid—approximately 0.1 g of formic acid was added per wound
Sodium chloride—approximately 0.2 g added per wound
Cellobiose—approximately 0.2 grams added per wound
Lime—approximately 0.1 g calcium carbonate added per wound
Trees were harvested after 12, 18 and 21 months.

Compound	effect on area of discoloration and agarwood resin (in words) [1]	Area of discoloration/resin [1] [cm^2]	effect on area of discoloration and agarwood resin (in words) [2]	Area of discoloration ([2]; Location Kon Tum) [cm^2]	Area of discoloration ([2]; Location Nui Cam) [cm^2]	effect on area of discoloration (in words) [3]	Area of discoloration ([3]; after 12 months)	Area of discoloration ([3]; after 18 months)	Area of discoloration ([3]; after 21 months)	microscopic observations of cells around treated wounds [3]	agarwood induction versus control wounds (in words) [3]
O=S([O-])O.[Na+] [Sodium bisulfite, sodium bisulfite]	increase the area of discoloration within the tree and the amount of agarwood resin formed	182.0	reduced amount of discoloration and agarwood resin	52.3	56.9						
O=C(O)c1ccccc1O [Salicylic acid, salicylic acid]			did not produce large areas of discoloration	16.9	25.5						
O=C([O-])[O-].[Ca+2] [Lime, calcium carbonate]						do not increase the area of discoloration	10.0	18.7	9.7		
O=C[C@H](O)[C@@H](O)[C@H](O[C@@H]1O[C@H](CO)[C@@H](O)[C@H](O)[C@H]1O)[C@H](O)CO [Cellobiose]						do not increase the area of discoloration	9.9	20.3	7.4		
O=CO [Formic acid]							28.5	18.6	31.8	react extensively and phloem cells are filled with resin	induce greater amounts of agarwood than the control wounds
[Cl-].[Na+] [NaCl, Sodium chloride]	increase the area of discoloration within the tree and the amount of agarwood resin formed	48.1					49.3	44.7	36.4	react extensively and phloem cells are filled with resin	induce greater amounts of agarwood than the control wounds
[Cl][Fe][Cl] [Ferrous chloride, ferrous chloride]	increase the area of discoloration within the tree and the amount of agarwood resin formed	112.5	did not produce large areas of discoloration	18.4	23.3						
